Key:
[1] = test system: RKO (RKOp27) human colon adenocarcinoma cells; test: Alamar Blue cell viability assay, anti-proliferative/cytotoxic activity on proliferating RKO subclones; type: cell-based; details: RKOp27, 72 h, RKO p27 uninduced (proliferating) cells, value = class bound given in Table A, read-out: −logIC50 RKO p27 uninduced (proliferating) (converted)
Method in brief: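 RKOp27 subclones (5000 cells/well) were exposed 24 h after seeding to semi-log compound dilutions in DMEM with 10% FCS, in quadruplicate, for 72 h at 37 °C. Viability was read by Alamar Blue fluorescence (544/590 nm) relative to untreated cells (1% DMSO medium). IC50 came from concentration-effect curves and is reported as −log IC50 [mol/l].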

[2] = test system: subclones of RKO colon adenocarcinoma cells (RKOp27 or RKOp21) arrested by Ponasterone A; test: Alamar Blue cell viability assay, cell cycle specific mode of action: cells arrested by ectopic p27Kip1 induced by Ponasterone A versus proliferating cells; type: cell-based; details: Homo sapiens, RKO p27 induced (arrested) cells, 10 μM Ponasterone A, 72 hours, value = class bound given in Table A, read-out: −logIC50 RKO p27 induced (arrested) (converted)
Method in brief: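 RKOp27 or RKOp21 cells, 15000/well in DMEM/10% FCS, either arrested by p27Kip1 induced with 10 μM Ponasterone A or proliferating without inducer; compound added after 24 h, 72 h at 37° C. Alamar Blue fluorescence (544/590 nm), viability as % of untreated cells; −log IC50 reported.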

Compound	IC50 [1] [nM]	IC50 [2] [nM]
N#Cc1c(NC(=O)/C=C/c2cccnc2)sc2c1CCC(OC(=O)NCc1cccnc1)C2 (stereo not drawn) [Example 35, Pyridin-3-ylmethyl-carbamic acid 3-cyano-2-((E)-3-pyridin-3-yl-allanoylamino)-4,5,6,7-tetrahydro-benzo[b]thiophen-6-yl ester]	501 to 2000	≥ 100000
CCn1nccc1CNC(=O)OCC1CCc2c(sc(NC(=O)/C=C/c3cccnc3)c2C#N)C1 (stereo not drawn) [Example 52, (2-Ethyl-2H-pyrazol-3-ylmethyl)-carbamic acid 3-cyano-2-((E)-3-pyridin-3-yl-allanoylamino)-4,5,6,7-tetrahydro-benzo[b]thiophen-6-ylmethyl ester]	501 to 2000	≥ 100000
COc1cccc(C(C)CC(=O)Nc2sc3c(c2C#N)CCC(OC(=O)NCc2cnn(C)c2)C3)c1 (stereo not drawn) [Example 274, (1-Methyl-1H-pyrazol-4-ylmethyl)-carbamic acid 3-cyano-2-[3-(3-methoxy-phenyl)-butanoylamino]-4,5,6,7-tetrahydro-benzo[b] thiophen-6-yl ester]	501 to 2000	≥ 100000
CC(CC(=O)Nc1sc2c(c1C#N)CCC(COC(=O)NCc1ccncc1)C2)c1ccccc1 (stereo not drawn) [Example 306, Pyridin-4-ylmethyl-carbamic acid 3-cyano-2-(3-phenyl-butanoyl-amino)-4,5,6,7-tetrahydro-benzo[b] thiophen-6-ylmethyl ester]	≤ 501	≥ 50100
CCOC(=O)OC1CCc2c(sc(NC(=O)/C=C/c3ccccc3OCC)c2C#N)C1 (stereo not drawn) [Example 6, Carbonic acid 3-cyano-2-[(E)-3-(2-ethoxy-phenyl)-allanoylamino]-4,5,6,7-tetrahydro-benzo[b]thiophen-6-yl ester ethyl ester]	501 to 2000	≥ 100000
CCOc1ccccc1/C=C/C(=O)Nc1sc2c(c1C#N)CCC(OC(=O)NCc1cccnc1)C2 (stereo not drawn) [Example 14, Pyridin-3-ylmethyl-carbamic acid 3-cyano-2-[(E)-3-(2-ethoxy-phenyl)-allanoylamino]-4,5,6,7-tetrahydro-benzo[b]thiophen-6-yl ester]	501 to 2000	≥ 50100
CCOc1ccccc1CCC(=O)Nc1sc2c(c1C#N)CCC(COC(=O)NCC1CCOCC1)C2 (stereo not drawn) [Example 194, (Tetrahydro-pyran-4-ylmethyl)-carbamic acid 3-cyano-2-[3-(2-ethoxy-phenyl)-propanoylamino]-4,5,6,7-tetrahydro-benzo[b]thiophen-6-ylmethyl ester]	≤ 501	≥ 10000
CCOc1ccccc1CCC(=O)Nc1sc2c(c1C#N)CCC(OC(=O)NCc1ccnn1CC)C2 (stereo not drawn) [Example 209, (2-Ethyl-2H-pyrazol-3-ylmethyl)-carbamic acid 3-cyano-2-[3-(2-ethoxy-phenyl)-propanoylamino]-4,5,6,7-tetrahydro-benzo[b]thiophen-6-yl ester]	≤ 501	≥ 100000
Cn1cnc(CNC(=O)OC2CCc3c(sc(NC(=O)/C=C/c4cccnc4)c3C#N)C2)c1 (stereo not drawn) [Example 53, (1-Methyl-1H-imidazol-4-ylmethyl)-carbamic acid 3-cyano-2-((E)-3-pyridin-3-yl-allanoylamino)-4,5,6,7-tetrahydro-benzo[b]thiophen-6-yl ester]	501 to 2000	≥ 100000
N#Cc1c(NC(=O)/C=C/c2cccnc2)sc2c1CCC(OC(=O)N1CCC1)C2 (stereo not drawn) [Example 80, Azetidine-1-carboxylic acid 3-cyano-2-((E)-3-pyridin-3-yl-allanoylamino)-4,5,6,7-tetrahydro-benzo[b]thiophen-6-yl ester]	≤ 501	≥ 100000
Cc1nocc1CNC(=O)OC1CCc2c(sc(NC(=O)CC(C)c3ccccc3)c2C#N)C1 (stereo not drawn) [Example 359, (3-Methyl-isoxazol-4-ylmethyl)-carbamic acid 3-cyano-2-(3-phenyl-butanoylamino)-4,5,6,7-tetrahydro-benzo[b] thiophen-6-yl ester]	≤ 501	≥ 100000
CCOC(=O)OC1CCc2c(sc(NC(=O)CCc3ccccc3OCC)c2C#N)C1 (stereo not drawn) [Example 152, Carbonic acid 3-cyano-2-[3-(2-ethoxy-phenyl)-propanoylamino]-4,5,6,7-tetrahydro-benzo[b]thiophen-6-yl ester ethyl ester]	≤ 501	≥ 100000
Cc1nnc(CNC(=O)OCC2CCc3c(sc(NC(=O)/C=C/c4cccnc4)c3C#N)C2)o1 (stereo not drawn) [Example 72, (5-Methyl-[1,3,4]oxadiazol-2-ylmethyl)-carbamic acid 3-cyano-2-((E)-3-pyridin-3-yl-allanoylamino)-4,5,6,7-tetrahydro-benzo[b]thiophen-6-ylmethyl ester]	≤ 501	≥ 100000
N#Cc1c(NC(=O)/C=C/c2cccnc2)sc2c1CCC(OC(=O)NCCc1cccnc1)C2 (stereo not drawn) [Example 36, (2-Pyridin-3-yl-ethyl)-carbamic acid 3-cyano-2-((E)-3-pyridin-3-yl-allanoylamino)-4,5,6,7-tetrahydro-benzo[b]thiophen-6-yl ester]	501 to 2000	≥ 50100
COc1cccc(C(C)CC(=O)Nc2sc3c(c2C#N)CCC(COC(=O)NCCc2cccnc2)C3)c1 (stereo not drawn) [Example 327, (2-Pyridin-3-yl-ethyl)-carbamic acid 3-cyano-2-[3-(3-methoxy-phenyl)-butanoylamino]-4,5,6,7-tetrahydro-benzo[b]thiophen-6-ylmethyl ester]	501 to 2000	≥ 50100
N#Cc1c(NC(=O)/C=C/c2cccnc2)sc2c1CCC(COC(=O)NCc1nccs1)C2 (stereo not drawn) [Example 65, Thiazol-2-ylmethyl-carbamic acid 3-cyano-2-((E)-3-pyridin-3-yl-allanoylamino)-4,5,6,7-tetrahydro-benzo[b]thiophen-6-ylmethyl ester]	501 to 2000	≥ 100000
N#Cc1c(NC(=O)/C=C/c2cccnc2)sc2c1CCC(COC(=O)N1CCCCO1)C2 (stereo not drawn) [Example 117, [1,2]Oxazinane-2-carboxylic acid 3-cyano-2-((E)-3-pyridin-3-yl-allanoylamino)-4,5,6,7-tetrahydro-benzo[b]thiophen-6-ylmethyl ester]	≤ 501	≥ 100000
CCOc1ccccc1CCC(=O)Nc1sc2c(c1C#N)CCC(OC(=O)NCc1ccncc1)C2 (stereo not drawn) [Example 171, Pyridin-4-ylmethyl-carbamic acid 3-cyano-2-[3-(2-ethoxy-phenyl)-propanoylamino]-4,5,6,7-tetrahydro-benzo[b]thiophen-6-yl ester]	≤ 501	≥ 50100
N#Cc1c(NC(=O)/C=C/c2cccnc2)sc2c1CCC(COC(=O)N1CC[C@@H](O)C1)C2 (stereo partly drawn) [Example 145, (R)-3-Hydroxy-pyrrolidine-1-carboxylic acid 3-cyano-2-((E)-3-pyridin-3-yl-allanoylamino)-4,5,6,7-tetrahydro-benzo[b]thiophen-6-ylmethyl ester]	≤ 501	≥ 100000
CNC(=O)OC[C@H]1CCc2c(sc(NC(=O)/C=C/c3cccnc3)c2C#N)C1 [Example 16a, (S)-Methyl-carbamic acid 3-cyano-2-((E)-3-pyridin-3-yl-allanoylamino)-4,5,6,7-tetrahydro-benzo[b]thiophen-6-ylmethyl ester]	≤ 501	≥ 100000
CC(CC(=O)Nc1sc2c(c1C#N)CCC(COC(=O)NC(C)c1cccnc1)C2)c1ccccc1 (stereo not drawn) [Example 316, (1-Pyridin-3-yl-ethyl)-carbamic acid 3-cyano-2-(3-phenyl-butanoylamino)-4,5,6,7-tetrahydro-benzo[b] thiophen-6-ylmethyl ester]	≤ 501	≥ 10000
